US7704971B2, “Uracil reductase inactivators” (SmithKlineBeecham Corporation, priority 1990, dated 2010)

Columns and labels:
[1] = molecular target: T1, Uracil reductase (dihydropyrimidine dehydrogenase, EC 1.3.1.2) (Bos taurus, UniProt Q28007); test: Determination of uracil reductase inactivation; type: biochemical, bovine
T1 construct: purified from bovine liver; from tissue; host or cells: bovine liver
T1 sequence (Q28007 1-1025): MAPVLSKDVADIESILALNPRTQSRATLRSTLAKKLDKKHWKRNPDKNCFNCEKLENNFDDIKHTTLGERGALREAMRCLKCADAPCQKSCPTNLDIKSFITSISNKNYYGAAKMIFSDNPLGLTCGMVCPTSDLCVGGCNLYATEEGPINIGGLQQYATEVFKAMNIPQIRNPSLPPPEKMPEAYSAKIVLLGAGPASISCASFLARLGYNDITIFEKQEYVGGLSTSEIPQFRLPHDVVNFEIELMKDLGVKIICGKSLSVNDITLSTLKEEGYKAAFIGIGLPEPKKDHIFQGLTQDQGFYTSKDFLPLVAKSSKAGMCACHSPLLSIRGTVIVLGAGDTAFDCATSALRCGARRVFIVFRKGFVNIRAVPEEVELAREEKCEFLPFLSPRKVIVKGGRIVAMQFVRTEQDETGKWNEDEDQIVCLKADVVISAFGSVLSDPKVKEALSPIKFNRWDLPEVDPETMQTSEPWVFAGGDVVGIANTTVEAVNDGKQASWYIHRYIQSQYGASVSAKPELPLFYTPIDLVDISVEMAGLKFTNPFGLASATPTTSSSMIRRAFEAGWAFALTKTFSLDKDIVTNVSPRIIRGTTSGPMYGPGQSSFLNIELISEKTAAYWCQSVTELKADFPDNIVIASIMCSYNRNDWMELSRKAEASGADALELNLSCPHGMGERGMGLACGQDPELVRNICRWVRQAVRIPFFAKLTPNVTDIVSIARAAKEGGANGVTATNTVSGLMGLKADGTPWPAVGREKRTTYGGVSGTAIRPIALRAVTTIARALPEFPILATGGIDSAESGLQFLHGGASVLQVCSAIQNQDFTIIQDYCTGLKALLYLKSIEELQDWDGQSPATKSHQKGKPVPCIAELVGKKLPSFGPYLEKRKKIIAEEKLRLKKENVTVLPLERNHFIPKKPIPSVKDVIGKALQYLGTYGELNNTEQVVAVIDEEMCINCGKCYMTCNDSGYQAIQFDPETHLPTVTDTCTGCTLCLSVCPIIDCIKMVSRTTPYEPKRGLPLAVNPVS
Experimental: Uracil reductase (1 micromolar) (dihydropyrimidine dehydrogenase, EC 1.3.1.2) purified from bovine liver was incubated with 100 micromolar inactivator and 5 mM dithiothreitol (enzyme reductant) at 37° for 30 minutes in 0.05 M Tris-HCl at pH 8.0. The enzyme and inactivator were diluted 100-fold into the assay buffer, which contained 200 micromolar NADPH, 200 micromolar thymine and 1 mM dithiothreitol in Tris-HCl at pH 8.0. The velocity of the enzyme was determined spectrophotometrically. These velocities have been corrected for NADPH oxidase activity, which was less than […] of the rate of thymine-dependent oxidation of NADPH. The % inactivation of the enzyme was equal to 100% minus the percent of enzymatic activity remaining. Enzyme incubated without inhibitor was stable under these conditions. Parenthetical values are the relative first-order rate constants for inactivation of enzyme determined from similar experiments where the fractional activity was measured as a function of the time of incubation of 50 micromol inactivator with enzyme.

uracil reductase = test: Return of plasma uracil to normal after EU (species not specified); type: in vivo; settings: after EU dose of maximum effect
Experimental: The maximum effect occurred at about 0.1 mg/kg p.o. in rats, at 0.5 to 1 mg/kg s.c. in mice, and at approximately 1 mg/kg intravenously (i.v.) in dogs and probably represents total inactivation of uracil reductase. These doses elevated mouse, dog, and rat plasma uracil from about 3 uM to about 50-60 uM. […] The ED50 equals 0.01 mg/kg.

In the case of C#Cc1c[nH]c(=O)[nH]c1=O [5-ethynyluracil], the “relative first-order rate constants for inactivation of enzyme (parenthetical values)” value ([1]; 50 micromol inactivator, fractional activity vs time of incubation) is reported as “(100)”, the inhibition at 100 µM ([1]; 0.5 h, 100 micromolar inactivator, 1 micromolar enzyme, 5 mM dithiothreitol, 37° for 30 minutes, pH 8.0, read-out: % Inactivation) is reported as 100% and the “half-life of plasma uracil decrease to normal” value (uracil reductase) is reported as 10 h. For the same compound, the “time over which plasma uracil decreased to normal” value (uracil reductase) was 24 h.
